Measured values: patent US5877202A, “Indole derivatives useful to treat estrogen-related neoplasms and disorders” (priority 1996, dated 1999)
Like-named read-outs stand apart in the source and are kept apart here. Blank lines part the entries; values can stand above or below the molecule they belong to.

Assays:
estrogen receptors = molecular target: T1, estrogen receptors (Homo sapiens, UniProt P03372); assay: Quantification of estrogen receptors in nuclear and whole cell extracts (ER-EIA monoclonal kit), Table 1; type: cell-based, human (MCF-7 human breast cancer cells)
T1 construct: estrogen receptor extracted from MCF-7 human breast tumor cells; endogenous in cells; host or cells: MCF-7 human breast cancer cells (nuclear extract, cytosol or whole cell extract)
T1 sequence (P03372 1-595): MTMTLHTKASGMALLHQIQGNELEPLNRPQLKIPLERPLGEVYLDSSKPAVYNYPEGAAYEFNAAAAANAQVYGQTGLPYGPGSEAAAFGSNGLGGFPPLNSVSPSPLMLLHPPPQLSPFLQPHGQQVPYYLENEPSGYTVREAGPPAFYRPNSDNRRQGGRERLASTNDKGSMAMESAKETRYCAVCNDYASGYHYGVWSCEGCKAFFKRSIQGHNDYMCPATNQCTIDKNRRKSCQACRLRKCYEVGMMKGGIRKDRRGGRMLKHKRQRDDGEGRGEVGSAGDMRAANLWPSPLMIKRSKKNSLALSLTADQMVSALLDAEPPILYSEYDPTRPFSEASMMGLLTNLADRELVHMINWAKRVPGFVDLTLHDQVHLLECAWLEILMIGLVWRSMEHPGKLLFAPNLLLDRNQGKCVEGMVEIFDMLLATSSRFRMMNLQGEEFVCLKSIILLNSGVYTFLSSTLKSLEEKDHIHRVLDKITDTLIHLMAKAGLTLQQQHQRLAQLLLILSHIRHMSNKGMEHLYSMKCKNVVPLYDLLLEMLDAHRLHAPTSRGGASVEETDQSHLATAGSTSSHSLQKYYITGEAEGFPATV
Experimental: (§1) Monolayers of MCF-7 human breast cancer cells are rinsed once with HBSS and scraped off culture dishes into 15 ml conical tubes with 5 ml HBSS. The cells are sedimented by centrifugation at 250×g for five minutes, suspended in 1 ml HBSS and sedimented by centrifugation at 2000 rpm in a tabletop centrifuge for five minutes in a 1.5 ml microfuge tube. Two PCV of a solution of a lysis buffer (25 mM HEPES, pH 7.8, 50 mM KCl, 0.5% Nonidet P 40, 2 mM dithiothreitol, 0.2 mM phenylmethylsulfonyl fluoride, 0.05 mg/ml leupeptin, 0.05 mg/ml aprotinin, 0.0025 mg/ml pepstatin, 0.005 mg/ml antipain) are added and cells are kept on ice for 15 minutes. Lysed cells are centrifuged for 3 minutes at 10,000×g, supernatant decanted, and kept as the cytosol fraction. Pellets are suspended in two PCV of extraction buffer (25 mM HEPES, pH 7.8, 500 mM KCl, 10% glycerol, 2 mM dithiothreitol and the above protease inhibitors), mixed for 20 minutes by inversion at 4 degrees C. and centrifuged at 10,000×g for 20 minutes. The supernatant is decanted and saved as nuclear extract. Both the nuclear extract and the cytosol are dialyzed for two hours against dialysis buffer (25 mM HEPES, pH 7.8, 50 mM KCl, 10% glycerol, 2 mM dithiothreitol and the above protease inhibitors). Nuclear and cytosol fractions are stored frozen at -80 degrees C. until used for mobility shift assays or determination of estrogen receptor content.
Whole cell extracts of tumor cells are prepared by the method of Reese and Katzenellenbogen, Nuc. Acids Res., 19: 6595-6602 (1991), with some modifications. Cell monolayers are rinsed once with HBSS, then scraped into HBSS and sedimented by centrifugation (5 min., 250×g). After resuspending in 1 mL HBSS, the cells are again sedimented at 250×g for 5 min at 4° C. The cell pellet is resuspended in lysis/extract buffer containing 20 mM Tris, pH 7.5, 10% glycerol (v/v), 0.5M sodium chloride and 0.5% NP-40 (v/v) and incubated on ice for 25 minutes, then the supernatants are dialyzed against 25 mM HEPES, pH 7.8, 10% glycerol (v/v), 0.5 mM dithiothreitol and 50 mM potassium chloride for 2 hours at 4° C. Both the lysis/extraction and the dialysis buffers contain protease inhibitors which included 0.5 mM phenylmethylsulfonylfluoride, 0.05 mg/mL leupeptin, 0.05 mg/mL aprotinin, 0.00-25 mg/mL pepstatin, and 0.005 mg/mL antipain. Dialyzed whole cell extracts are stored in aliquots at -80° C. until used.
The protein concentration for nucleus and cytosol fractions are determined with a BIO-RAD kit, according to the manufacturer's instructions.
Estrogen receptor levels in nuclear and whole cell extracts of tumor cells were quanitated using the ER-EIA monoclonal kit manufactured by Abbott Laboratories (Diagnostic Division) according to the kit instructions.
receptors in nuclear extracts.
.dagger.WCE refers to IC50 value for estrogen receptors in whole cel
A slash dividing two numbers indicates the results of two separate

MCF-7 estrogen receptor = molecular target: T2, MCF-7 estrogen receptor (Homo sapiens, UniProt P03372); assay: Competitive binding assay, Relative Binding Affinities on binding of estradiol to MCF-7 estrogen receptor
T2 construct: estrogen receptor extracted from MCF-7 human breast tumor cells; endogenous in cells; host or cells: MCF-7 human breast cancer cells (nuclear extract, cytosol or whole cell extract)
T2 sequence (P03372 1-595): T1 sequence (P03372 1-595)
Experimental: Briefly, RBAs are determined from competitive binding assays with several concentrations of estradiol (E2) with and without test compound. After 16-18 hours of incubation at 4 degrees C., unbound [^3 H] E2 is separated from ER-bound [^3 H] E2. The IC50 is determined and the RBA is calculated as: […]

GAPDH mRNA = GAPDH mRNA levels in treated MCF-7 human breast tumor cells (positive control probe); type: cell-based; details: 30 μM, 24 hr;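 further: Phosphoimager intensity of radioactive mRNA bands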
Experimental: (§2) After treatment with 30 μM drug for 24 hr, total RNA is isolated according to the guanidinium isothiocyanate method using an RNA preparation kit from 5 Prime-3 Prime, Inc., following the manufacturer's instructions. The RNA is separated by formaldehyde gel electrophoresis and transferred to a nylon membrane.

estrogen receptor mRNA = assay: Reduction of estrogen receptor mRNA levels in treated MCF-7 human breast tumor cells; type: cell-based; details: 30 μM, 24 hr;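 on Estrogen Receptor mRNA band intensity: Phosphoimager intensity of radioactive mRNA bands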
Experimental: as §2

[1] = molecular target: T3, estrogen receptor binding to an estrogen response element (Homo sapiens, UniProt P03372); assay: Inhibition of estrogen receptor binding to an estrogen response element in DNA mobility shift assays; type: biochemical, human (nuclear extract of MCF-7 human breast cancer cells); details: read-out: integrated volume of shifted ERE oligo as percentage of control, given as % inhibition
T3 construct: estrogen receptor extracted from MCF-7 human breast tumor cells; endogenous in cells; host or cells: MCF-7 human breast cancer cells (nuclear extract, cytosol or whole cell extract)
T3 sequence (P03372 1-595): T1 sequence (P03372 1-595)
Experimental: as §1
Briefly, to each reaction tube was added 0.01 mg nuclear extract, 2 μg poly dIdC, 50 mM NaCl, 1 mM dithiothreitol and 10 mM Tris, pH 7.5 in a total volume of 0.01 ml and the mixture was kept at room temperature for 10 minutes. A ^32 P-labelled estrogen response element [ERE]

[2] = estrogen receptors in nuclear extracts
[3] = WCE: estrogen receptors in whole cell extracts

IC50 (estrogen receptors; [2]): 27 µM
Structure (SMILES): Cc1c(CC(=O)NCCCCCCC(=O)N(C)c2ccccc2)c2cc(O)ccc2n1C(=O)c1ccccc1 [MDL 103,005, 7-[[5-Hydroxy-1-benzoyl-2-methyl-1H-indol-3-yl]-acetylamino]-heptanoic acid methyl-phenyl-amide]

IC50 (estrogen receptors; [2]): 19 µM
Structure (SMILES): CCCCN(C)C(=O)CCCCCNC(=O)Cc1c(C)n(C(=O)c2ccc(Cl)cc2)c2ccc(O)cc12 [MDL 105,643, 6-[[5-Hydroxy-1-(4-chlorobenzoyl)-2-methyl-1H-indol-3-yl]-acetylamino]-hexanoic acid methyl-butyl-amide]

IC50 (estrogen receptors; [2]): 16 µM
Structure (SMILES): CCCCN(C)C(=O)CCCCCCCNC(=O)Cc1c(C)n(C(=O)c2ccc(OC)cc2)c2ccc(O)cc12 [MDL 105,517, 8-[[5-Hydroxy-1-(4-methoxybenzoyl)-2-methyl-1H-indol-3-yl]-acetylamino]-octanoic acid methyl-butyl-amide]

IC50 (estrogen receptors; [3]): 28 µM
Structure (SMILES): CCCCc1ccc(C(=O)n2c(C)c(CC(=O)NCCCCCCC(=O)N(CC)CC)c3cc(O)ccc32)cc1 [MDL 103,494, 7-[[5-Hydroxy-1-(4-butylbenzoyl)-2-methyl-1H-indol-3-yl]-acetylamino]-heptanoic acid diethyl-amide]

IC50 (estrogen receptors; [2]): 25 µM
Structure (SMILES): CCCCNC(=O)CCCCCCCNC(=O)Cc1c(-c2ccc(O)cc2)n(Cc2ccccc2)c2ccc(O)cc12 [MDL 104,262, 8-[[5-Hydroxy-1-benzyl-2-[(4-hydroxy)phenyl]-1H-indol-3-yl]-acetylamino]-octanoic acid butyl-amide]

IC50 (estrogen receptors; [3]): 14 µM
Structure (SMILES): CCCCN(C)C(=O)CCCCCCCNC(=O)Cc1cn(Cc2ccccc2)c2ccccc12 [MDL 103,948, 8-[[1-Benzyl-1H-indol-3-yl]-acetylamino]-octanoic acid methyl-butyl-amide]

IC50 (estrogen receptors; [2]): 12 µM
Structure (SMILES): CCCCN(C)C(=O)CCCCCCCNC(=O)Cc1cn(Cc2ccccc2)c2ccc(F)cc12 [MDL 104,822, 8-[[5-Fluoro-1-benzyl-1H-indol-3-yl]-acetylamino]-octanoic acid methyl-butyl-amide]

IC50 (estrogen receptors; [2]): 20 µM
Structure (SMILES): CCCCN(C)C(=O)CCCCCNC(=O)Cc1c(-c2ccc(O)cc2)n(Cc2ccccc2)c2ccc(O)cc12 [MDL 104,982, 6-[[5-Hydroxy-1-benzyl-2-[(4-hydroxy)phenyl]-1H-indol-3-yl]-acetylamino]-hexanoic acid methyl-butyl-amide]

inhibition of estradiol binding to MCF-7 ER (MCF-7 estrogen receptor; doses of 100 or 200 nM): did not significantly inhibit
inhibition of estradiol binding to MCF-7 ER (MCF-7 estrogen receptor; typically, at doses of 100 or 200 nM): less than 10%
inhibition at 2 µM ([1]; 2 μM): 7.6%
inhibition at 5 µM ([1]; 5 μM): 60%
inhibition at 10 µM ([1]; 10 μM): 84%
inhibition at 20 µM ([1]; 20 μM): 33%
inhibition at 30 µM ([1]; 30 μM): 30%
Structure (SMILES): CCCCN(C)C(=O)CCCCCCCNC(=O)Cc1c(C)n(C(=O)c2ccccc2)c2ccc(O)cc12 [MDL 105,813, 8-[[5-Hydroxy-1-benzoyl-2-methyl-1H-indol-3-yl]-acetylamino]-octanoic acid methyl-butyl-amide]
GAPDH mRNA band intensity (GAPDH mRNA; replicate 1): 6,996
GAPDH mRNA band intensity (GAPDH mRNA; replicate 2): 4,830
ER/GAPDH mean (estrogen receptor mRNA; mean of replicates 1 and 2): 0.63
ER/GAPDH (estrogen receptor mRNA; replicate 1): 0.75
Estrogen Receptor mRNA band intensity (estrogen receptor mRNA; replicate 1): 5,288
ER/GAPDH (estrogen receptor mRNA; replicate 2): 0.5
Estrogen Receptor mRNA band intensity (estrogen receptor mRNA; replicate 2): 2,418
activity at 30 µM (estrogen receptor mRNA; Homo sapiens, MCF7, read-out: ER/GAPDH % Control): 17%

IC50 (estrogen receptors; [2]): 16 µM
IC50 (estrogen receptors; estrogen receptors in nuclear extracts, second of two separate experiments (after the slash)): 17 µM
Structure (SMILES): CCCCN(C)C(=O)CCCCCCNC(=O)Cc1c(-c2ccc(O)cc2)n(Cc2ccccc2)c2ccc(O)cc12 [MDL 103,623, 7-[[5-Hydroxy-1-benzyl-2-[(4-hydroxy)phenyl]-1H-indol-3-yl]-acetylamino]-heptanoic acid methyl butyl-amide]

Structure (SMILES): CCCCN(C)C(=O)CCCCCCCNC(=O)Cc1c(-c2ccc(OC(C)=O)cc2)n(Cc2ccccc2)c2ccc(OC(C)=O)cc12 [MDL 104,401, 8-[[5-Acetoxy-1-benzyl-2-[(4-acetoxy)-phenyl]-1H-indol-3-yl]-acetylamino]-octanoic acid methyl-butyl-amide]
IC50 (estrogen receptors; [2]): 28 µM
inhibition at 2 µM [1]: 120%
inhibition at 5 µM [1]: 92%
inhibition at 10 µM [1]: 59%
inhibition at 20 µM [1]: 49%
inhibition at 30 µM [1]: 44%

IC50 (estrogen receptors; [2]): 23.5 µM
Structure (SMILES): CCCCN(C)C(=O)CCCCCCNC(=O)Cc1c(C)n(CCCc2ccccc2)c2ccc(O)cc12 [MDL 104,261, 7-[[5-Hydroxy-1-(3-phenylpropyl)-2-methyl-1H-indol-3-yl]-acetylamino]-heptanoic acid methyl-butyl-amide]

IC50 (estrogen receptors; [2]): 16 µM
Structure (SMILES): CCCCN(C)C(=O)CCCCCCCNC(=O)Cc1c(-c2ccc(F)cc2)n(Cc2ccccc2)c2ccc(O)cc12 [MDL 103,970, 8-[[5-Hydroxy-1-benzyl-2-(4-fluorophenyl)-1H-indol-3-yl]-acetylamino]-octanoic acid methyl-butyl-amide]

IC50 (estrogen receptors; [2]): 16 µM
Structure (SMILES): CCN(CC)C(=O)CCCCCCCNC(=O)Cc1c(C)n(C(=O)c2ccc(Cl)cc2)c2ccc(O)cc12 [MDL 104,631, 8-[[5-Hydroxy-1-(4-chlorobenzoyl)-2-methyl-1H-indol-3-yl]-acetylamino]-octanoic acid diethyl-amide]
